Results on three compounds are retold here after patent US20230381215A1, “NOVEL COMBINATION TREATMENT FOR ACUTE MYELOID LEUKEMIA (AML)” (Hoffmann-La Roche Inc., priority 2013, published 2023).

For data set [1], the system named is MOLM-13.luc.c4 (MOLM-13 human AML cells). Put plainly: Antitumor efficacy and survival/increase in life span (ILS) in disseminated MOLM-13.luc.c4 AML model. The class given is in vivo, SCID beige mice. As to conditions: for tumor burden by BLI photon counts compared to Vehicle-treated control (FIG. 1) / antitumor activity as assessed by tumor burden (BLI) or ILS: monotherapy; for tumor burden by BLI photon counts compared to Vehicle-treated control (FIG. 1): treatment initiated on day 3. As to the method:
(§1) Female SCID beige mice (10/group), obtained from Charles River Laboratories (Wilmington, DE) were used when they were approximately 8-12 weeks old and weighed approximately 20-25 grams. The health of the mice was assessed daily by gross observation and analyses of blood samples taken from sentinel animals housed on shared shelf racks. All animals were allowed to acclimate and recover from any shipping-related stress for a minimum of 72 hours prior to experimental use. Autoclaved water and irradiated food (5058-ms Pico Lab mouse chow, Purina Mills, Richmond, IN) were provided ad libitum, and the animals were maintained on a 12 hour light and dark cycle. Cages, bedding and water bottles were autoclaved before use and changed weekly. All animal experiments were conducted in accordance with the Guide for the Care and Use of Laboratory Animals, local regulations, and protocols approved by the Roche Animal Care and Use Committee in an AAALAC accredited facility.
Parental MOLM-13 human AML cells were stably transfected with Luc2 lentiviral particles for 24 hrs in the presence of Polybrene (8 ug/ml) and then selected in the presence of Blasticidin for 3 weeks. Subsequently, one clone was selected by single cell plating in the presence of 0.1 mg/mL G418 and was designated MOLM-13.luc.c4. The lentiviral Luc2 expression plasmid was constructed by incorporating Luc2 gene (Promega) in to pLOC lentiviral plasmid backbone (Thermo Fisher Scientific). Luc2 lentiviral particles were prepared by using Trans-Lentiviral Packaging System (Thermo Fisher Scientific) as recommended.
MOLM-13.luc.c4 was maintained with RPMI 1640 with L-glutamine (2 mM) media (GIBCO/Invitrogen, Carlsbad, CA) supplemented with 10% heat-inactivated Fetal Bovine Serum (HI-FBS; GIBCO/Invitrogen, Carlsbad, CA), and 1% 100 mM sodium pyruvate. Freshly dissociated MOLM13-Luc.c4 cells (1×106 or 5×106) suspended in Phosphate Buffered Saline (PBS) were then intravenously inoculated via the caudal tail vein into female SCID-beige mice.
It was then filtered thru a 0.22 micron filter into a septum sealed vial for intravenous administration. […] Stock cytarabine (Ara-C injection, 100 mg/ml) was diluted in sterile 0.9% sodium chloride to 44 mg/ml according to manufacturer's instructions and dosed at 200 mg/kg iv twice weekly.
Treatment duration was 3 weeks.
(§2) For increased life span (ILS) assessment, animal body weights were measured two to three times per week, and animals were monitored daily for any clinical signs of toxicity or excessive tumor burden (i.e. hind limb paralysis or morbidity). In addition, progression of disease was monitored by in vivo bioluminescent imaging (BLI) using IVIS® Spectrum system. For each BLI session, mice received 100 mg/kg D-luciferin (Caliper Life Sciences/Perkin-Elmer) via ip injections and were imaged at 20 min post luciferin injection at either a 5 s or a 10 s exposure time. Images were captured by the IVIS® Spectrum system and data were collected and analyzed with Living Image 4.2.0 software (Caliper Life Sciences, Hopkinton, MA). Total photon fluxes (ph/s) representing luciferase activity within each fixed region of interest (ROI) covering whole tumors of individual mice were determined. The actual images of mice are not disclosed herein.
Quantification of bioluminescence allowed for direct longitudinal comparison of tumor burden between treatment groups prior to surrogate death end points being reached. Tumor burden was graphically represented as the mean BLI photon flux+standard error of the mean (SEM), and median survival was determined utilizing Kaplan Meier survival analysis. Statistical analysis of comparisons between groups was analyzed by two-way ANOVA, and post-hoc Bonferroni test (GraphPad Prism, version 4.3). Differences between groups were considered to be significant when the probability value (p) was ≤0.05.

The conditions of data set [2]: Ara-C 200 mg/kg 2×/week iv; 10/group. How it is done: as §1, with “Cages, bedding and water bottles were autoclaved before use and changed weekly. All animal experiments were conducted in accordance with the Guide for the Care and Use of Laboratory Animals, local regulations, and protocols approved by the Roche Animal Care and Use Committee in an AAALAC accredited facility.” left out
as §2, with “For each BLI session, mice received 100 mg/kg D-luciferin (Caliper Life Sciences/Perkin-Elmer) via ip injections and were imaged at 20 min post luciferin injection at either a 5 s or a 10 s exposure time.” left out, “The actual images of mice are not disclosed herein.” left out

With “4-{[(2R,3S,4R,5S)-3-(3-Chloro-2-fluoro-phenyl)-4-(4-chloro-2-fluoro-phenyl)-4-cyano-5-(2,2-dimethyl-propyl)-pyrrolidine-2-carbonyl]-amino}-3-methoxy-benzoic acid 1-mPEG-carbonyloxy-ethyl ester (mPEG, average MW, 2200) [compound I-B]”, the “% ILS vs. Vehicle control” value in data set [1] (Cpd I-B 437 mg/kg q7d iv) was 37%; in data set [1] (Cpd I-B 437 mg/kg q7d iv, listed as Cpd I-B), “*37%”. For the same compound, in data set [1] (Cpd I-B 437 mg/kg q7d iv, 5 million cells, treatment from day 3), the “Median survival” value amounted to 28 days. The “tumor burden by BLI photon counts compared to Vehicle-treated control (FIG. 1)” value in data set [1] (5 million cells) is listed as “significantly reduced photon counts”.
In data set [2], `Nc1ccn([C@@H]2O[C@H](CO)[C@@H](O)[C@@H]2O)c(=O)n1` [Ara-C, cytarabine, reference compound] displayed a Mortality of 0. The “% ILS vs. Vehicle control” value in data set [1] (Ara-C 200 mg/kg 2×/wk iv) is 0%. Moreover, the “Median survival” value in data set [1] (Ara-C 200 mg/kg 2×/wk iv) stood at 20 days. For the same compound, the “antitumor activity as assessed by tumor burden (BLI) or ILS” value in data set [1] is recorded as “lack of monotherapy activity”; in data set [1] (listed as Cytarabine (Ara-C)) it was “lack of antitumor activity”. Moreover, the “tumor burden by BLI photon counts compared to Vehicle-treated control (FIG. 1)” value in data set [1] (5 million cells) is listed as “no difference”.
As for `COc1cc(C(=O)O)ccc1NC(=O)[C@@H]1N[C@@H](CC(C)(C)C)[C@](C#N)(c2ccc(Cl)cc2F)[C@H]1c1cccc(Cl)c1F` [compound (A), 4-{[(2R,3S,4R,5S)-4-(4-Chloro-2-fluoro-phenyl)-3-(3-chloro-2-fluoro-phenyl)-4-cyano-5-(2,2-dimethyl-propyl)-pyrrolidine-2-carbonyl]-amino}-3-methoxy-benzoic acid], in data set [1] (Cpd (A) 80 mg/kg qd × 5 po), the “% ILS vs. Vehicle control” value is reported as “*37%” and the “Median survival” value was 28 days. Besides, in data set [1] (Cpd (A) 100 mg/kg q7d po), the “% ILS vs. Vehicle control” value was “*22%” and the “Median survival” value is 25 days.
